Assay results from patent US6737383B1, “Herbicidal oxadiazolidines” (priority 1999, dated 2004).

Assays:
bedstraw = test: Test B pre/postemergence bedstraw; assay type: in vivo, Galium aparine
How it was run: (§1)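 Herbicidal effect was estimated by eye on a ten-point control scale after plants spent twelve to sixteen days in a greenhouse following soil or foliar treatment. Foliar sprays targeted plants at one to four leaves; all doses were formulated in a non-phytotoxic solvent with surfactant.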

blackgrass = test: Test B pre/postemergence blackgrass; assay type: in vivo, Alopecurus myosuroides
How it was run: as §1

surinam grass = test: Test B pre/postemergence surinam grass; assay type: in vivo, Brachiaria decumbens
How it was run: as §1

corn = test: Test B pre/postemergence corn; assay type: in vivo, Zea mays
How it was run: as §1

giant foxtail = test: Test B pre/postemergence giant foxtail; assay type: in vivo, Setaria faberii
How it was run: as §1

morningglory = test: Test B pre/postemergence morningglory; assay type: in vivo, Ipomoea hederacea
How it was run: as §1

pigweed = test: Test B pre/postemergence pigweed; assay type: in vivo, Amaranthus retroflexus
How it was run: as §1

rape = test: Test B pre/postemergence rape; assay type: in vivo, Brassica napus
How it was run: as §1

soybean = test: Test B pre/postemergence soybean; assay type: in vivo, Glycine max
How it was run: as §1

sugar beet = test: Test B pre/postemergence sugar beet; assay type: in vivo, Beta vulgaris
How it was run: as §1

velvetleaf = test: Test B pre/postemergence velvetleaf; assay type: in vivo, Abutilon theophrasti
How it was run: as §1

purple nutsedge = test: Test B pre/postemergence purple nutsedge; assay type: in vivo, Cyperus rotundus
How it was run: as §1

rice = test: Test B flood test rice; assay type: in vivo, Oryza sativa
How it was run: (§2)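 Plants were grown to the 2-leaf stage before treatment with test chemical, then held in a greenhouse for twelve to sixteen days. Injury was visually rated against untreated controls on a 0–10 scale, where 0 is no effect and 10 is complete control.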

smallflower flatsedge = test: Test B flood test smallflower flatsedge; assay type: in vivo, Cyperus difformis
How it was run: as §2

duck salad = test: Test B flood test duck salad; assay type: in vivo, Heteranthera limosa
How it was run: as §2

bamyardgrass = test: Test B flood test barnyardgrass; assay type: in vivo, Echinochloa crus-galli
How it was run: as §2

[1] = Preemergence, Rate 31 g/ha, visual rating, scale 0 to 10 (0 no effect, 10 complete control)
[2] = Preemergence, Rate 62 g/ha, scale of 0 to 10 where 0 is no effect and 10 is complete control
[3] = Rate 16 g/ha, Postemergence, scale 0 to 10, 0 no effect, 10 complete control
[4] = Rate 16 g/ha, Preemergence, scale 0 to 10, 0 no effect, 10 complete control
[5] = Rate 31 g/ha, Postemergence, scale 0 to 10
[6] = Rate 62 g/ha, Postemergence, scale 0 to 10 (0 no effect, 10 complete control)
[7] = Rate 125 g/ha, Postemergence, scale of 0 to 10 where 0 is no effect and 10 is complete control
[8] = Rate 125 g/ha, Preemergence, scale of 0 to 10 where 0 is no effect and 10 is complete control
[9] = Rate 16 g/ha, head printed Pre-emergence (flood test species), scale 0 to 10, 0 no effect, 10 complete control
[10] = Rate 31 g/ha, Pre-emergence section (flood test species), scale 0 to 10
[11] = Rate 62 g/ha, headed Pre-emergence (flood test species), scale 0 to 10 (0 no effect, 10 complete control)
[12] = Rate 125 g/ha, Pre-emergence, flood test species, scale 0 to 10 where 0 is no effect and 10 is complete control

CC(C)N(C(=O)n1oc(=O)n(CCCF)c1=O)c1ccc(F)cc1 [Compound 287]
Bedstraw plant response rating (bedstraw; [1]): 4
Bedstraw plant response rating (bedstraw; [2]): 9
Bedstraw plant response rating (bedstraw; [3]): 0
Bedstraw plant response rating (bedstraw; [4]): 0
Bedstraw plant response rating (bedstraw; [5]): 0
Bedstraw plant response rating (bedstraw; [6]): 4
Bedstraw plant response rating (bedstraw; [7]): 8
Bedstraw plant response rating (bedstraw; [8]): 10
Blackgrass plant response rating (blackgrass; [1]): 7
Blackgrass plant response rating (blackgrass; [2]): 10
Blackgrass plant response rating (blackgrass; [3]): 0
Blackgrass plant response rating (blackgrass; [4]): 0
Blackgrass plant response rating (blackgrass; [5]): 8
Blackgrass plant response rating (blackgrass; [6]): 8
Blackgrass plant response rating (blackgrass; [7]): 9
Blackgrass plant response rating (blackgrass; [8]): 10
B. signalgrass plant response rating (surinam grass; [1]): 3
B. signalgrass plant response rating (surinam grass; [2]): 6
B. signalgrass plant response rating (surinam grass; [3]): 0
B. signalgrass plant response rating (surinam grass; [4]): 0
B. signalgrass plant response rating (surinam grass; [5]): 0
B. signalgrass plant response rating (surinam grass; [6]): 0
B. signalgrass plant response rating (surinam grass; [7]): 2
B. signalgrass plant response rating (surinam grass; [8]): 10
Corn plant response rating (corn; [1]): 0
Corn plant response rating (corn; [2]): 0
Corn plant response rating (corn; [3]): 0
Corn plant response rating (corn; [4]): 0
Corn plant response rating (corn; [5]): 0
Corn plant response rating (corn; [6]): 0
Corn plant response rating (corn; [7]): 0
Corn plant response rating (corn; [8]): 0
Giant foxtail plant response rating (giant foxtail; [1]): 9
Giant foxtail plant response rating (giant foxtail; [2]): 10
Giant foxtail plant response rating (giant foxtail; [3]): 0
Giant foxtail plant response rating (giant foxtail; [4]): 8
Giant foxtail plant response rating (giant foxtail; [5]): 2
Giant foxtail plant response rating (giant foxtail; [6]): 7
Giant foxtail plant response rating (giant foxtail; [7]): 8
Giant foxtail plant response rating (giant foxtail; [8]): 10
Morningglory plant response rating (morningglory; [1]): 0
Morningglory plant response rating (morningglory; [2]): 0
Morningglory plant response rating (morningglory; [3]): 2
Morningglory plant response rating (morningglory; [4]): 0
Morningglory plant response rating (morningglory; [5]): 2
Morningglory plant response rating (morningglory; [6]): 2
Morningglory plant response rating (morningglory; [7]): 2
Morningglory plant response rating (morningglory; [8]): 0
Redroot pigweed plant response rating (pigweed; [1]): 4
Redroot pigweed plant response rating (pigweed; [2]): 5
Redroot pigweed plant response rating (pigweed; [3]): 0
Redroot pigweed plant response rating (pigweed; [4]): 0
Redroot pigweed plant response rating (pigweed; [5]): 0
Redroot pigweed plant response rating (pigweed; [6]): 2
Redroot pigweed plant response rating (pigweed; [7]): 6
Redroot pigweed plant response rating (pigweed; [8]): 8
Rape plant response rating (rape; [1]): 4
Rape plant response rating (rape; [2]): 4
Rape plant response rating (rape; [3]): 0
Rape plant response rating (rape; [4]): 0
Rape plant response rating (rape; [5]): 0
Rape plant response rating (rape; [6]): 0
Rape plant response rating (rape; [7]): 0
Rape plant response rating (rape; [8]): 8
Soybean plant response rating (soybean; [1]): 0
Soybean plant response rating (soybean; [2]): 0
Soybean plant response rating (soybean; [3]): 1
Soybean plant response rating (soybean; [4]): 0
Soybean plant response rating (soybean; [6]): 1
Soybean plant response rating (soybean; [7]): 3
Soybean plant response rating (soybean; [8]): 6
Sugarbeets plant response rating (sugar beet; [1]): 0
Sugarbeets plant response rating (sugar beet; [2]): 3
Sugarbeets plant response rating (sugar beet; [3]): 0
Sugarbeets plant response rating (sugar beet; [4]): 0
Sugarbeets plant response rating (sugar beet; [6]): 0
Sugarbeets plant response rating (sugar beet; [7]): 0
Sugarbeets plant response rating (sugar beet; [8]): 6
Velvetleaf plant response rating (velvetleaf; [1]): 3
Velvetleaf plant response rating (velvetleaf; [2]): 6
Velvetleaf plant response rating (velvetleaf; [3]): 0
Velvetleaf plant response rating (velvetleaf; [4]): 1
Velvetleaf plant response rating (velvetleaf; [6]): 0
Velvetleaf plant response rating (velvetleaf; [7]): 4
Velvetleaf plant response rating (velvetleaf; [8]): 7
Nutsedge plant response rating (purple nutsedge; [1]): 0
Nutsedge plant response rating (purple nutsedge; [2]): 0
Nutsedge plant response rating (purple nutsedge; [3]): 0
Nutsedge plant response rating (purple nutsedge; [4]): 0
Nutsedge plant response rating (purple nutsedge; [5]): 5
Nutsedge plant response rating (purple nutsedge; [6]): 6
Nutsedge plant response rating (purple nutsedge; [7]): 6
Nutsedge plant response rating (purple nutsedge; [8]): 6
Rice plant response rating (rice; [9]): 0
Rice plant response rating (rice; [10]): 0
Rice plant response rating (rice; [11]): 0
Rice plant response rating (rice; [12]): 0
S. Flatsedge plant response rating (smallflower flatsedge; [9]): 0
S. Flatsedge plant response rating (smallflower flatsedge; [10]): 0
S. Flatsedge plant response rating (smallflower flatsedge; [11]): 0
S. Flatsedge plant response rating (smallflower flatsedge; [12]): 0
Ducksalad plant response rating (duck salad; [9]): 0
Ducksalad plant response rating (duck salad; [10]): 0
Ducksalad plant response rating (duck salad; [11]): 0
Ducksalad plant response rating (duck salad; [12]): 0
Barnyardgrass plant response rating (bamyardgrass; [9]): 0
Barnyardgrass plant response rating (bamyardgrass; [10]): 0
Barnyardgrass plant response rating (bamyardgrass; [11]): 0
Barnyardgrass plant response rating (bamyardgrass; [12]): 0
